Results from patent publication US20160244679A1, “SELECTIVE LIQUID-LIQUID EXTRACTION OF OXIDATIVE DESULFURIZATION REACTION PRODUCTS” (SAUDI ARABIAN OIL COMPANY, priority 2011, published 2016).

Columns and labels:
Assay type in all cases: physicochemical
[1] = Batch liquid-liquid extraction of oxidized model diesel with 50 W % aqueous acetic acid, gas chromatographic analysis (Example 1, Table 10A); conditions: for co-extraction: after both extractions; for total extraction: two batch extractions, solvent-to-model diesel about 1:1, 23° C., 1 atmosphere
Experimental: (§1) A quantity of 100 mL of a model diesel feed formed of xylene, DBT, DBT sulfoxide and DBT sulfone (with a total sulfur content of 1635 ppmw) was oxidized by 30 W % aqueous hydrogen peroxide at a temperature of 37° C. and at a pressure of 1 atmosphere for a period of 70 minutes with solid ZnO catalyst (1.2 g) and a ratio of oxidant (H2O2) to organic sulfur of 4:1 in acetic acid, about 10 mL. After the sold catalyst settled, the model diesel was removed for extraction of sulfoxidation products and removal of aqueous H2O2 using an embodiment of the selective solvent formulation of the present invention.
DBT sulfoxide and DBT sulfone were extracted using a selective solvent formulation of 50 W % aqueous acetic acid. Two batch extractions were sequentially conducted using a solvent-to-model diesel ratio of about 1:1 at a temperature of 23° C. and at a pressure of 1 atmosphere for a period of 2 minutes, during which the contents were stirred. The total extraction of DBT sulfoxide and DBT sulfone was 95 W % and 55 W % respectively. Furthermore, the co-extraction of xylene was limited to 1.9 W % after both extractions, and the co-extraction of DBT (not oxidized) was limited to 13.2 W % after both extractions. The total sulfur measured by sulfur speciation (using an ANTEK Model 9000 analyzer commercially available from Antek Instruments, Inc., Houston, Tex. USA) determined that the overall sulfur content was reduced by 55 W % as shown at Table 10B.

[2] = Batch liquid-liquid extraction of oxidized model diesel with 70 W % aqueous formic acid, gas chromatography (Example 2, Table 11A); conditions: for total extraction: two batch extractions, about 1:1, 23° C., 1 atmosphere
Experimental: as §1
A quantity of oxidized model diesel feed as used in Example 1 was subjected to extraction to remove DBT sulfoxide and DBT sulfone using a selective solvent formulation of 70 W % aqueous formic acid. Two batch extractions were sequentially conducted using a solvent to model diesel ratio of about 1:1 at a temperature of 23° C. and at a pressure of 1 atmosphere for a period of 2 minutes, during which the contents were stirred. The total extraction of DBT sulfoxide and DBT sulfone was 94 W % and 56 W % respectively. Furthermore, the co-extraction of xylene was limited to 2 W % after the first extraction, and increased by 3.8 W % after the second extraction, based on the normalization percentage of the peak regions for the GC analysis for each extraction. The normalization method is qualitative and quasi-quantitative, so that the peak area varies. The slight positive (3.8%) of xylene is due to the normalization of the sum of all peaks and it was changed by material balance variation and/or with measurement error.
The co-extraction of DBT (not oxidized) was limited to 10 W % after both extractions. The total sulfur measured by sulfur speciation determined that the overall sulfur content was reduced by 56 W % as shown in Table 11B.

[3] = Batch liquid-liquid extraction of oxidized model diesel with 50 W % aqueous methanol, gas chromatography (Example 3, Table 12A)
Experimental: as §1
A quantity of oxidized model diesel feed as used in Example 1 was subjected to extraction to remove DBT sulfoxide and DBT sulfone using a selective solvent formulation of 50 W % aqueous methanol. One extraction was conducted using a solvent to model diesel ratio of about 1:1 at a temperature of 23° C. and at a pressure of 1 atmosphere for a period of 2 minutes, during which the contents were stirred. The total extraction of DBT sulfoxide was 51.5 W %. […] The co-extraction of DBT (not oxidized) was limited to 3.1 W %. The total sulfur measured by sulfur speciation determined that the overall sulfur content was reduced by 16 W % as shown at Table 12B.

[4] = Model diesel oxidized, before extraction
[5] = after 1st extraction, 50 W % aqueous acetic acid
[6] = after 1st extraction, 50 W % aqueous acetic acid, solvent:diesel about 1:1, 23° C., 2 minutes
[7] = after 2nd extraction, 50 W % aqueous acetic acid
[8] = after 2nd extraction, 50 W % aqueous acetic acid, solvent:diesel about 1:1, 23° C., 2 minutes
[9] = after 1st extraction, 70 W % aqueous formic acid
[10] = after 1st extraction, 70 W % aqueous formic acid, solvent:diesel about 1:1, 23° C., 2 minutes
[11] = after 2nd extraction, 70 W % aqueous formic acid
[12] = after 2nd extraction, 70 W % aqueous formic acid, solvent:diesel about 1:1, 23° C., 2 minutes
[13] = 50 W % aqueous methanol, one extraction
[14] = after 1st extraction, 50 W % aqueous methanol
[15] = after 1st extraction, 50 W % aqueous methanol, solvent:diesel about 1:1, 23° C., 2 minutes
[16] = 50 W % aqueous acetic acid, 2 minutes
[17] = 70 W % aqueous formic acid, 2 minutes

Compound	co-extraction ([1]; 50 W % aqueous acetic acid)	GC abundance in model diesel [1, 4]	change of GC abundance versus oxidized model diesel [1, 5]	GC abundance in model diesel [1, 6]	change of GC abundance versus oxidized model diesel [1, 7]	GC abundance in model diesel [1, 8]	GC abundance in model diesel [2, 4]	change of GC abundance versus oxidized model diesel [2, 9]	GC abundance in model diesel [2, 10]	change of GC abundance versus oxidized model diesel [2, 11]	GC abundance in model diesel [2, 12]	co-extraction [3, 13]	GC abundance in model diesel [3, 4]	change of GC abundance versus oxidized model diesel [3, 14]	GC abundance in model diesel [3, 15]	total extraction [1, 16]	total extraction [2, 17]	other results
xylene	1.9 W %	9283.7 abundance units	(−1.4%)	9155.2 abundance units	(−1.9%)	9108.19 abundance units	9283.7 abundance units	(−1.9%)	9111.6 abundance units	(+3.8%)	9635.5 abundance units	no co-extraction	9283.7 abundance units	+2.8%)	9540.4 abundance units			co-extraction ([2]; 70 W % aqueous formic acid, after the first extraction): 2 W %; increase after the second extraction (normalized GC peak) ([2]; 70 W % aqueous formic acid, after the second extraction): 3.8 W %; amount increased after extraction (normalized GC results) [3, 13]: 2.8 W %
[O-][s+]1c2ccccc2c2ccccc21 [DBT sulfoxide, dibenzothiophene 5-oxide]		24.02 abundance units	(−67.5%)	7.81 abundance units	(−94.8%)	1.26 abundance units	24.02 abundance units	(−73.1%)	6.45 abundance units	(−94%)	1.38 abundance units		24.02 abundance units	(−51.5%)	11.64 abundance units	95 W %	94 W %	total extraction ([3]; 50 W % aqueous methanol, one extraction, about 1:1, 23° C., 1 atmosphere, 2 minutes): 51.5 W %
O=S1(=O)c2ccccc2-c2ccccc21 [DBT sulfone, dibenzothiophene 5,5-dioxide]		25.09 abundance units	(−23.7%)	19.15 abundance units	(−54.8%)	11.39 abundance units	25.09 abundance units	(−30.4%)	17.46 abundance units	(−55.6%)	11.14 abundance units		25.09 abundance units	(−2.4%)	24.49 abundance units	55 W %	56 W %	
c1ccc2c(c1)sc1ccccc12 [DBT, dibenzothiophene]	13.2 W %	24.44 abundance units	(−9.6%)	22.09 abundance units	(−13.2%)	21.22 abundance units	24.44 abundance units	(−10.4%)	21.89 abundance units	(−10.0%)	22 abundance units	3.1 W %	24.44 abundance units	(−3.1%)	23.69 abundance units			co-extraction ([2]; 70 W % aqueous formic acid, after both extractions): 10 W %
